The values that follow come from patent US8871767B2, “2-arylimidazo[1,2-B]pyridazine, 2-phenylimidazo[1,2-A]pyridine, and 2-phenylimidazo[1,2-A]pyrazine derivatives” (Hengrui (USA) Ltd., priority 2010, dated 2014).

Where two headings read alike, the source gives them in different places.

Test [1] has as its system Hedgehog pathway activation on 10T1/2/Smo#3 cells (C3H10T1/2 cells transfected with human Smoothened receptor). As to the kind of experiment: Hedgehog pathway activation on 10T1/2/Smo#3 cells measured by ALP activity. It is filed as cell-based. Conditions: Mus musculus, C3H 10T1/2, 10T1/2/Smo#3 cells. The method in brief:
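C3H10T1/2 cells stably expressing human Smoothened were activated with hShh-conditioned medium (10-20%) or 500 nM SAG, with test compounds present. Pathway block read as inhibited ALP activity (4-methylumbelliferyl phosphate fluorescence); viability checked by CellTiter-Blue. IC50 values reported.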

For test [2], the system named is Hedgehog pathway activation (GLi-luciferase reporter) in Shh Light II reporter cells. Briefly: Hedgehog pathway activation on Shh Light II reporter cells measured by luciferase activity. Format: cell-based. Conditions: Mus musculus, Shh Light II. In short, it runs like this: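 Shh Light II reporter cells carrying a hedgehog-responsive GLi-luciferase reporter were stimulated either with 500 nM SAG, a direct Smoothened agonist, or with conditioned media containing human Sonic Hedgehog (hShh). Test compounds were evaluated for blocking this pathway activation, quantified by luciferase activity. Cell viability was monitored in parallel with the Celltiter-Blue® assay.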

Setting [3] is: measured by ALP activity, read-out: ALP (IC50, inhibition of Hedgehog pathway activation).
The mark [4] stands for this setting: hShh activation, read-out: Shh (IC50, inhibition of Hedgehog pathway activation).
The mark [5] stands for this setting: hShh activation, ALP activity, read-out: 10T1/2/Smo#3 ALP activity (hShh Activation).
Where [6] appears, read: SAG activation (500 nM SAG), read-out: Shh Light II luciferase activity (SAG activation).
[7] abbreviates: hShh activation, read-out: Shh Light II luciferase activity (hShh activation).

With `CC(C)OC(=O)Nc1cc(-c2cn3nc(-c4cccnc4C(F)(F)F)ccc3n2)ccc1F` [Example 683, isopropyl 2-fluoro-5-(6-(2-(trifluoromethyl)pyridin-3-yl)imidazo[1,2-b]pyridazin-2-yl)phenylcarbamate], the IC50 is 2550 nM in test [1] (setting [3]) and 559 nM in test [2] (setting [4]).
Take `O=C(Nc1cc(-c2cn3nc(-c4cccnc4C(F)(F)F)ccc3n2)ccc1F)N1CC(F)(F)C1` [Example 684, 3,3-difluoro-N-(2-fluoro-5-(6-(2-(trifluoromethyl)pyridin-3-yl)imidazo[1,2-b]pyridazin-2-yl)phenyl)azetidine-1-carboxamide]: the IC50 in test [1] (setting [3]) was 356 nM; in test [2] (setting [4]), 95 nM.
On to `CCN(CC)C(=O)Nc1cc(-c2cn3nc(-c4cccnc4C(F)(F)F)ccc3n2)ccc1F` [Example 685, 1,1-diethyl-3-(2-fluoro-5-(6-(2-(trifluoromethyl)pyridin-3-yl)imidazo[1,2-b]pyridazin-2-yl)phenyl)urea], for which the IC50 was found to be 274 nM in test [1] (setting [3]) and 139 nM in test [2] (setting [4]).
Turning to `O=C(Nc1cc(-c2cn3nc(-c4cccnc4C(F)(F)F)ccc3n2)ccc1F)N1CCCC1` [Example 686, N-(2-fluoro-5-(6-(2-(trifluoromethyl)pyridin-3-yl)imidazo[1,2-b]pyridazin-2-yl)phenyl)pyrrolidine-1-carboxamide], the IC50 in test [1] (setting [3]) amounted to 218 nM; in test [2] (setting [4]) it was 149 nM.
With `CCc1ccc(-c2cn3nc(-c4cccnc4C(F)(F)F)ccc3n2)cc1NC(=O)C1CCCCC1` [Example 687, N-(2-ethyl-5-(6-(2-(trifluoromethyl)pyridin-3-yl)imidazo[1,2-b]pyridazin-2-yl)phenyl)cyclohexanecarboxamide], the IC50 amounted to 1590 nM in test [1] (setting [3]) and 463 nM in test [2] (setting [4]).
For `CCc1ccc(-c2cn3nc(-c4cccnc4C(F)(F)F)ccc3n2)cc1NC(=O)C1CCCC1` [Example 688, N-(2-ethyl-5-(6-(2-(trifluoromethyl)pyridin-3-yl)imidazo[1,2-b]pyridazin-2-yl)phenyl)cyclopentanecarboxamide], the results for the IC50 in test [1] (setting [3]) and in test [2] (setting [4]) were 578 nM and 103 nM, respectively.
For the compound `CCc1ccc(-c2cn3nc(-c4cccnc4C(F)(F)F)ccc3n2)cc1NC(=O)C(C)(C)CC` [Example 689, N-(2-ethyl-5-(6-(2-(trifluoromethyl)pyridin-3-yl)imidazo[1,2-b]pyridazin-2-yl)phenyl)-2,2-dimethylbutanamide], the IC50 in test [1] (setting [3]) turned out to be 188 nM; in test [2] (setting [4]) it was 64 nM.
The like results for `CCc1ccc(-c2cn3nc(-c4cccnc4C(F)(F)F)ccc3n2)cc1NC(=O)C(C)(C)C(F)(F)F` [Example 690, N-(2-ethyl-5-(6-(2-(trifluoromethyl)pyridin-3-yl)imidazo[1,2-b]pyridazin-2-yl)phenyl)-3,3,3-trifluoro-2,2-dimethylpropanamide] were, in that order, 225 nM and 59 nM.
The corresponding values for `CCc1ccc(-c2cn3nc(-c4cccnc4C(F)(F)F)ccc3n2)cc1NC(=O)CC(C)(C)C` [Example 691, N-(2-ethyl-5-(6-(2-(trifluoromethyl)pyridin-3-yl)imidazo[1,2-b]pyridazin-2-yl)phenyl)-3,3-dimethylbutanamide] are 1220 nM and 459 nM.
For the compound `CCc1ccc(-c2cn3nc(-c4cccnc4C(F)(F)F)ccc3n2)cc1NC(=O)CC(F)(F)F` [Example 692, N-(2-ethyl-5-(6-(2-(trifluoromethyl)pyridin-3-yl)imidazo[1,2-b]pyridazin-2-yl)phenyl)-3,3,3-trifluoropropanamide], the results for the IC50 in test [1] (setting [3]) and in test [2] (setting [4]) were 951 nM and 416 nM, respectively.
For `CCc1ccc(-c2cn3nc(-c4cccnc4C(F)(F)F)ccc3n2)cc1NC(=O)N(CC)CC` [Example 693, 1,1-diethyl-3-(2-ethyl-5-(6-(2-(trifluoromethyl)pyridin-3-yl)imidazo[1,2-b]pyridazin-2-yl)phenyl)urea], the figures for the IC50 in test [1] (setting [3]) and in test [2] (setting [4]) were 186 nM and 192 nM, respectively.
Consider `CCc1ccc(-c2cn3nc(-c4cccnc4C(F)(F)F)ccc3n2)cc1NC(=O)N1CCCC1` [Example 694, N-(2-ethyl-5-(6-(2-(trifluoromethyl)pyridin-3-yl)imidazo[1,2-b]pyridazin-2-yl)phenyl)pyrrolidine-1-carboxamide], for which the IC50 in test [1] (setting [3]) stood at 174 nM; in test [2] (setting [4]), 339 nM.
Take `CCc1ccc(-c2cn3nc(-c4cccnc4C(F)(F)F)ccc3n2)cc1NC(=O)N1CC(F)(F)C1` [Example 695, N-(2-ethyl-5-(6-(2-(trifluoromethyl)pyridin-3-yl)imidazo[1,2-b]pyridazin-2-yl)phenyl)-3,3-difluoroazetidine-1-carboxamide]: the IC50 is 158 nM in test [1] (setting [3]) and 368 nM in test [2] (setting [4]).
Turning to `CCc1ccc(-c2cn3nc(-c4cccnc4C(F)(F)F)ccc3n2)cc1NC(=O)C1(C)COC1` [Example 696, N-(2-ethyl-5-(6-(2-(trifluoromethyl)pyridin-3-yl)imidazo[1,2-b]pyridazin-2-yl)phenyl)-3-methyloxetane-3-carboxamide], the IC50 in test [1] (setting [3]) turned out to be 229 nM; in test [2] (setting [4]) it was 254 nM.
As for `NS(=O)(=O)c1cc(-c2cn3nc(-c4cccnc4C(F)(F)F)ccc3n2)ccc1Cl` [Example 697, 2-chloro-5-(6-(2-(trifluoromethyl)pyridin-3-yl)imidazo[1,2-b]pyridazin-2-yl)benzenesulfonamide], the IC50 in test [1] (setting [3]) and in test [2] (setting [4]) was greater than 10000 nM throughout.
On to `CNS(=O)(=O)c1cc(-c2cn3nc(-c4cccnc4C(F)(F)F)ccc3n2)ccc1Cl` [Example 698, 2-chloro-N-methyl-5-(6-(2-(trifluoromethyl)pyridin-3-yl)imidazo[1,2-b]pyridazin-2-yl)benzenesulfonamide], for which the IC50 in test [1] (setting [3]) is greater than 10000 nM; in test [2] (setting [4]) it was 4250 nM.
As for `CC(C)(C)NS(=O)(=O)c1cc(-c2cn3nc(-c4cccnc4C(F)(F)F)ccc3n2)ccc1Cl` [Example 699, N-tert-butyl-2-chloro-5-(6-(2-(trifluoromethyl)pyridin-3-yl)imidazo[1,2-b]pyridazin-2-yl)benzenesulfonamide], the results for the IC50 in test [1] (setting [3]) and in test [2] (setting [4]) were greater than 10000 nM and 2300 nM, respectively.
The corresponding values for `CN(C)S(=O)(=O)c1cc(-c2cn3nc(-c4cccnc4C(F)(F)F)ccc3n2)ccc1Cl` [Example 700, 2-chloro-N,N-dimethyl-5-(6-(2-(trifluoromethyl)pyridin-3-yl)imidazo[1,2-b]pyridazin-2-yl)benzenesulfonamide] are greater than 10000 nM and 2500 nM.
For `CCNS(=O)(=O)c1cc(-c2cn3nc(-c4cccnc4C(F)(F)F)ccc3n2)ccc1Cl` [Example 701, 2-chloro-N-ethyl-5-(6-(2-(trifluoromethyl)pyridin-3-yl)imidazo[1,2-b]pyridazin-2-yl)benzenesulfonamide], the IC50 was greater than 10000 nM in test [1] (setting [3]) and 2620 nM in test [2] (setting [4]).
For `O=S(=O)(NC1CC1)c1cc(-c2cn3nc(-c4cccnc4C(F)(F)F)ccc3n2)ccc1Cl` [Example 702, 2-chloro-N-cyclopropyl-5-(6-(2-(trifluoromethyl)pyridin-3-yl)imidazo[1,2-b]pyridazin-2-yl)benzenesulfonamide], the IC50 in test [1] (setting [3]) was greater than 10000 nM; in test [2] (setting [4]), 3980 nM.
As for `CCN(CC)S(=O)(=O)c1cc(-c2cn3nc(-c4cccnc4C(F)(F)F)ccc3n2)ccc1Cl` [Example 703, 2-chloro-N,N-diethyl-5-(6-(2-(trifluoromethyl)pyridin-3-yl)imidazo[1,2-b]pyridazin-2-yl)benzenesulfonamide], the IC50 is greater than 10000 nM in test [1] (setting [3]) and 1600 nM in test [2] (setting [4]).
For `Cc1ccc(-c2cn3nc(-c4ccc(C(N)=O)cc4C(F)(F)F)ccc3n2)cc1NC(=O)C(C)(C)C` [compound 508], the IC50 in test [1] (setting [5]) was less than 300 nM; in test [1] (setting [3]), 110 nM; in test [2] (setting [6]), 300 to 3000 nM; in test [2] (setting [4]), 92 nM; in test [2] (setting [7]), less than 300 nM.
`COC(=O)CCCCCCNC(=O)c1ccc(-c2ccc3nc(-c4ccc(C)c(NC(=O)C(C)(C)C)c4)cn3n2)c(C(F)(F)F)c1` [compound 509]: the IC50 in test [1] (setting [5]) is less than 300 nM; in test [1] (setting [3]) it was 213 nM; in test [2] (setting [6]) it was 300 to 3000 nM; in test [2] (setting [4]), 158 nM; in test [2] (setting [7]), less than 300 nM.
As to `Cc1ccc(-c2cn3nc(-c4ccc(/C(N)=N/O)cc4C(F)(F)F)ccc3n2)cc1NC(=O)C(C)(C)C` [compound 511, N-(5-(6-(4-(N′-hydroxycarbamimidoyl)-2-(trifluoromethyl)phenyl)imidazo[1,2-b]pyridazin-2-yl)-2-methylphenyl)pivalamide], the IC50 in test [1] (setting [5]) is less than 300 nM; in test [1] (setting [3]), 2 nM; in test [2] (setting [6]), less than 300 nM; in test [2] (setting [4]), 10 nM; in test [2] (setting [7]), less than 300 nM.
On to `Cc1ccc(-c2cn3nc(-c4cccnc4C(F)(F)F)ccc3n2)cc1-c1cscn1` [compound 512], for which the figures for the IC50 in test [1] (setting [3]) and in test [2] (setting [4]) were 205 nM and 311 nM, respectively.
Take `Cc1ccc(-c2cn3nc(-c4cccnc4C(F)(F)F)ccc3n2)cc1NC(=O)C1(C)CC1` [compound 518, 1-methyl-N-(2-methyl-5-(6-(2-(trifluoromethyl)pyridin-3-yl)imidazo[1,2-b]pyridazin-2-yl)phenyl)cyclopropanecarboxamide]: the IC50 in test [1] (setting [5]) was less than 300 nM; in test [1] (setting [3]) it was 71 nM; in test [2] (setting [6]) it was less than 300 nM; in test [2] (setting [4]), 16 nM; in test [2] (setting [7]), less than 300 nM.
